Like-named read-outs stand apart in the source and are kept apart here.
Assays:
Type in all cases: in vivo, human
Heroin Craving and Abuse = system: Heroin Craving and Abuse
Excerpt: 21. Relief of Heroin Craving and Abuse (Problem No. 12) Sibutramine Patient No. 165
A single person was introduced to heroin by snorting when they were particularly stressed with the anger and pain of losing a boyfriend. They had always had difficulty recovering from pain, anger and loss but the heroin rapidly made them feel “normal”. They quickly moved to the intravenous route and reached a maximum intake of 5 bags per day (approximately $100/day in cost) for the next 6 months when they were discovered to have charged large amounts on their charge cards. They were then hospitalized in a drug detoxification hospital for three weeks but soon relapsed after discharge. After their second round of treatment they were referred to the care of a psychiatrist (the inventor herein). The patient described constant, unrelenting cravings for heroin and expressed that it would be “next to impossible” to remain free of the drug for any length of time. […] Out of desperation, the dose was increased to 15 mg in the AM and within an hour they noted a marked change. […] They now felt the “normal” feeling that heroin had given them and no longer noted any anger, hurt or distress.
They gained 15 pounds the first 2 weeks on the 15 mg of sibutramine in the morning. This was partially relieved by adding a 5 mg dose of sibutramine in the afternoon. This effect on the heroin craving and hurt is therefore clearly separate from the FDA-approved anorexic effect of sibutramine. […] They are now working at two jobs to pay their back debts.

[1] = system: Torticollis, Lingual Dystonia and Dyskinesia; assay: Case history 23
Gulf War Syndrome (GWS) = assay: Case history 19; conditions: 10 mg. b.i.d. of sibutramine; veteran

SMILES: CC(C)CC(N(C)C)C1(c2ccc(Cl)cc2)CCC1.Cl (stereo not drawn) [sibutramine, N,N-dimethyl-1-[1-(4-chlorophenyl)cyclobutyl]-3-methylbutylamine hydrochloride]
- “nodding out” side effects (Heroin Craving and Abuse; compared with heroin): none of the negative “nodding out” side effects
- weight gain (Heroin Craving and Abuse; first 2 weeks on 15 mg in the morning): 15 pounds
- anger, hurt and narcotic craving (Heroin Craving and Abuse; sibutramine 5 mg tid po, person): no relief from their anger and hurt nor from their narcotic craving
- anger, hurt and narcotic craving (Heroin Craving and Abuse; sibutramine 15 mg in the AM): a complete relief
- duration of effect (Heroin Craving and Abuse; sibutramine 15 mg in the AM): extended for the whole day
- time to marked change (Heroin Craving and Abuse; sibutramine 15 mg in the AM): an hour
- side effects (Heroin Craving and Abuse; sibutramine 15 mg in the morning): a dry mouth and a craving for food
- symptoms with continued dosing ([1]; 15 mg sibutramine every six hours): prolonged and sustained relief of their symptoms
- pain ([1]; sibutramine 15): their pain subsided
- tremors, mouth opening, arm movement ([1]; sibutramine 15): their tremors considerably slowed, their mouth was no. longer pulling open as dramatically and their arm was not moving noticeably
- time to response ([1]; sibutramine 15, person): ≤ 45 min
- pain, cognitive problems, confusion (Gulf War Syndrome (GWS)): rapidly repaired their pain, cognitive problems, and confusion
